Test results published in paper PMC12362796, “Bilirubin Targeting WNK1 to Alleviate NLRP3‐Mediated Neuroinflammation” (Advanced Science, 2025).

How the values were obtained:
primary astrocytes = test: MQAE intracellular chloride measurement in primary astrocytes; assay type: cell-based; details: lacking KCC2 expression
Excerpt: Since bilirubin‐induced activation of WNK1 kinase activity increases [Cl⁻]i in neurons, we sought to elucidate the downstream effector proteins of WNK1 that are involved in this process. Neuronal [Cl⁻]i is primarily regulated by the Cl⁻‐K⁺ symporter KCC2, with additional modulation by factors such as the Na⁺‐K⁺‐Cl⁻ co‐transporter NKCC1, GABAA receptors, and glycine receptors (GlyR), all of which contribute to [Cl⁻]i homeostasis.^[ [31] ^] To investigate the mechanism underlying bilirubin‐induced changes in [Cl⁻]i, we selectively targeted these proteins using pharmacological inhibitors (VU0463271 for KCC2, bumetanide for NKCC1, bicuculline for GABAA receptors, and strychnine for GlyR) and activated KCC2 using CLP257.^[ [35], [36] ^] […] The bilirubin‐induced effect on [Cl⁻]i was not observed in primary astrocytes (Figure S15A,B, Supporting Information) or the HEK 293T cell line (Figure S15C, Supporting Information), both of which lacked KCC2 expression (Figure S16A,B, Supporting Information), further confirming that the effects of bilirubin and WNK1 on [Cl⁻]i elevation are dependent on KCC2.
Intracellular chloride concentration ([Cl⁻]i) was measured using the MQAE fluorescent dye (Life Technologies) following established protocols (Zhang, Lee et al. 2015). […]

[1] = system: LPS-induced NLRP3 inflammasome activation in hippocampus; test: LPS-induced inflammation model in mice, hippocampal NLRP3 inflammasome activation; assay type: in vivo, mouse
Excerpt: Furthermore, a murine model of infection‐induced inflammation was established in neonatal wild‐type, Blvra^−/− , and Ugt1a1^+/− mice by intraperitoneal administration of lipopolysaccharide (LPS) (Figure 5A).^[ [41], [42] ^] We assessed the expression levels of NLRP3 in the hippocampal region and the aggregation of the adaptor protein ASC in hippocampal neurons to indicate the level of inflammasome activation.^[ [43], [44] ^] We observed elevated NLRP3 expression (Figure 5B) and increased ASC aggregation in low‐bilirubin Blvra^−/− mice compared to wild‐type controls, whereas these parameters were reversed in high‐bilirubin Ugt1a1^+/− mice (Figure 5C,D). Additionally, Caspase‐1 enzyme activity decreased in high‐bilirubin mice (Figure 5E), supporting the inhibitory role of bilirubin in NLRP3 activation.
Figure 5 Bilirubin‐WNK1 suppresses LPS‐induced NLRP3 activation in the mouse hippocampus. A) Diagram of the experimental design. LPS (0.6 µg g^−1) or normal saline (NS) was injected intraperitoneally (i.p.) for 5 consecutive days starting on day 7. Hippocampal tissues were harvested 6 h after last injection. B) Western blotting analysis of NLRP3 in hippocampal tissues from WT, Blvra^−/− , or Ugt1a1^+/− mice after LPS/saline treatment. C) Immunofluorescence staining of ASC speck formation in hippocampal tissues from WT, Blvra^−/− , or Ugt1a1^+/− mice after LPS/saline treatment. β3‐Tubulin was used to label neurons and DAPI to stain cell nuclei. Main image scale bars = 50 µm, inset scale bars = 5 µm. D) Summary data showing the percentage of cells containing ASC specks as shown in C) (n = 6). (E) Relative activity of caspase‐1 in hippocampal tissues from WT, Blvra^−/− , or Ugt1a1^+/− mice after LPS/saline treatment (n = 3). F) Experimental design diagram. LPS (0.6 µg g^−1), LPS combined with bilirubin (5 µg g^−1), or normal saline (NS) was injected intraperitoneally for 5 consecutive days starting on day 7. G) Western blotting analysis of NLRP3 in hippocampal tissues from Wnk1^fl/fl,Thy1‐Cre mice after treatment. H) Immunofluorescence staining of ASC speck formation in hippocampal tissues from vehicle‐treated and Wnk1^fl/fl,Thy1‐Cre mice after treatment. β3‐Tubulin was used to label neurons and DAPI to stain cell nuclei. Main image scale bars = 50 µm, inset scale bars = 5 µm. Corresponding images are also provided in Figure S21 (Supporting Information). I) Relative activity of caspase‐1 in hippocampal tissues from Wnk1^fl/fl and Wnk1^fl/fl,Thy1‐Cre mice after treatment (n = 3). Error bars indicate mean ± SD. *p < 0.05, **p < 0.01, ***p < 0.001, and ****p < 0.0001.
To investigate the role of WNK1 in mediating the inhibitory effect of bilirubin on NLRP3 activation, we used Wnk1^fl/fl,Thy1‐Cre mice which is the hippocampal neuron‐specific Wnk1 knockout mice. Mice were then administered intraperitoneal injections of saline, LPS, or a combination of LPS and bilirubin (Figure 5F). After five days of LPS treatment, we observed increased staining areas for GFAP (an astrocyte marker) and IBA1 (a microglia marker). Furthermore, a portion of the adaptor protein ASC (encoded by PYCARD) co‐localized with IBA1 and GFAP.
Caspase‐1 activity was measured using a Caspase‐1 Activity Assay Kit (Beyotime Biotechnology, Haimen, China). Briefly, 50 µg of protein from the mouse hippocampal tissue was added to a reaction buffer containing Ac‐YVAD‐ρNA. The absorbance was read at 405 nm using a microplate reader, and caspase‐1 activity was normalized to that of the control.

FABP1 = system: FABP1; design: method as in PMID 37390966, PMID 34067839; details: cited from earlier work
[2] = LPS 0.6 µg g−1 with bilirubin 5 µg g−1 i.p., 5 consecutive days, hippocampus

## C=CC1=C(C)/C(=C/c2[nH]c(Cc3[nH]c(/C=C4\NC(=O)C(C)=C4C=C)c(C)c3CCC(=O)O)c(CCC(=O)O)c2C)NC1=O [bilirubin, Bilirubin]
Primary astrocytes
  bilirubin-induced effect on [Cl−]i: not observed
[1]; LPS 0.6 µg g−1 with bilirubin 5 µg g−1 i.p., 5 consecutive days, hippocampal neurons
  ASC speck formation: reduces
[1]; [2]
  Caspase-1 activation: reduces
  IL-1β cleavage: reduces
[1]; LPS with bilirubin i.p., 5 days, IBA1 and GFAP co-localization
  ASC aggregation in microglia or astrocytes: does not affect
[1]; Wnk1fl/fl,Thy1-Cre mice, LPS stimulation
  inhibitory effect on NLRP3 inflammasome assembly, Caspase-1 enzyme activity and IL-1β maturation after deletion of Wnk1: abolished
[1]; upon LPS stimulation, hippocampus
  phosphorylation-mediated activation of the NF-κB p65 subunit: neither bilirubin nor Wnk1 deficiency had a significant effect
FABP1
  concentrations at which FABP1 binds bilirubin: 1 to 4 µM
